Measurements as given in the supplement of paper PMC10307832.

Tests used:
Experiment in all cases: relative viability (nuclei count vs DMSO), 5 days (fraction); higher = more cells survive
Elesclomol + Linsitinib = compound: CN(NC(=O)CC(=O)NN(C)C(=S)c1ccccc1)C(=S)c1ccccc1 [Elesclomol] + C[C@]1(O)C[C@@H](c2nc(-c3ccc4ccc(-c5ccccc5)nc4c3)c3c(N)nccn32)C1 [Linsitinib] (partner 1 µM)
Method in brief: (§1)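 Nuclei were stained with Hoechst during a one-step fixation (final 0.05% Triton X-100, 1% formaldehyde, 1 ug/ml Hoechst) carried out 5 days after dosing, then counted on 4× images. The cells, lung cancer lines in 1536-well plates, had been dosed by pin tool the day after seeding with one drug alone or a fixed anchor-drug dose plus five library-drug doses (not always all listed) in √10 steps. Relative viability is the nuclei count in treated wells divided by that in vehicle wells, and each value is the median of duplicate plates.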

Elesclomol + AZD7762 = compound: CN(NC(=O)CC(=O)NN(C)C(=S)c1ccccc1)C(=S)c1ccccc1 [Elesclomol] + NC(=O)Nc1cc(-c2cccc(F)c2)sc1C(=O)N[C@H]1CCCNC1 [AZD7762] (partner 0.2 µM)
Method in brief: as §1

Elesclomol + Luminespib = compound: CN(NC(=O)CC(=O)NN(C)C(=S)c1ccccc1)C(=S)c1ccccc1 [Elesclomol] + CCNC(=O)c1noc(-c2cc(C(C)C)c(O)cc2O)c1-c1ccc(CN2CCOCC2)cc1 [Luminespib] (partner 0.01 µM)
Method in brief: as §1

Elesclomol + Olaparib = compound: CN(NC(=O)CC(=O)NN(C)C(=S)c1ccccc1)C(=S)c1ccccc1 [Elesclomol] + O=C(c1cc(Cc2n[nH]c(=O)c3ccccc23)ccc1F)N1CCN(C(=O)C2CC2)CC1 [Olaparib] (partner 8 µM)
Method in brief: as §1

Elesclomol + Palbociclib = compound: CN(NC(=O)CC(=O)NN(C)C(=S)c1ccccc1)C(=S)c1ccccc1 [Elesclomol] + CC(=O)c1c(C)c2cnc(Nc3ccc(N4CCNCC4)cn3)nc2n(C2CCCC2)c1=O [Palbociclib] (partner 0.5 µM)
Method in brief: as §1

Cell Line | relative viability (Elesclomol + Linsitinib; first compound 0.003162 µM) | relative viability (Elesclomol + Linsitinib; first compound 0.01 µM) | relative viability (Elesclomol + Linsitinib; first compound 0.03162 µM) | relative viability (Elesclomol + Linsitinib; first compound 0.1 µM) | relative viability (Elesclomol + AZD7762; first compound 0.003162 µM) | relative viability (Elesclomol + AZD7762; first compound 0.01 µM) | relative viability (Elesclomol + AZD7762; first compound 0.03162 µM) | relative viability (Elesclomol + AZD7762; first compound 0.1 µM) | relative viability (Elesclomol + Luminespib; first compound 0.003162 µM) | relative viability (Elesclomol + Luminespib; first compound 0.01 µM) | relative viability (Elesclomol + Luminespib; first compound 0.03162 µM) | relative viability (Elesclomol + Luminespib; first compound 0.1 µM) | relative viability (Elesclomol + Olaparib; first compound 0.003162 µM) | relative viability (Elesclomol + Olaparib; first compound 0.01 µM) | relative viability (Elesclomol + Olaparib; first compound 0.03162 µM) | relative viability (Elesclomol + Olaparib; first compound 0.1 µM) | relative viability (Elesclomol + Palbociclib; first compound 0.003162 µM) | relative viability (Elesclomol + Palbociclib; first compound 0.01 µM) | relative viability (Elesclomol + Palbociclib; first compound 0.03162 µM) | relative viability (Elesclomol + Palbociclib; first compound 0.1 µM)
NCI-H1395 | 0.857 | 0.347 | 0.716 | 0.26 | 0.438 | 0.431 | 0.226 | 0.202 | 0.57 | 0.498 | 0.308 | 0.292 | 0.449 | 0.364 | 0.254 | 0.22 | 0.659 | 0.36 | 0.309 | 0.219
NCI-H1437 | 0.883 | 0.56 | 0.271 | 0.186 | 0.938 | 0.644 | 0.547 | 0.594 | 0.967 | 0.689 | 0.445 | 0.436 | 0.555 | 0.461 | 0.379 | 0.359 | 0.3 | 0.247 | 0.257 | 0.208
NCI-H1651 | 0.748 | 0.673 | 0.193 | 0.111 | 0.462 | 0.469 | 0.345 | 0.334 | 0.944 | 0.361 | 0.157 | 0.0878 | 0.185 | 0.184 | 0.192 | 0.135 | 0.509 | 0.516 | 0.532 | 0.341
NCI-H1666 | 0.833 | 0.358 | 0.321 | 0.202 | 0.784 | 0.807 | 0.492 | 0.416 | 0.962 | 0.788 | 0.521 | 0.484 | 0.666 | 0.703 | 0.662 | 0.603 | 0.682 | 0.563 | 0.575 | 0.583
NCI-H1734 | 0.907 | 0.745 | 0.8 | 0.154 | 0.518 | 0.45 | 0.145 | 0.0601 | 0.189 | 0.14 | 0.122 | 0.108 | 0.586 | 0.519 | 0.165 | 0.0747 | 0.334 | 0.326 | 0.132 | 0.105
NCI-H1755 | 1.01 | 1.04 | 0.967 | 0.223 | 0.457 | 0.349 | 0.38 | 0.406 | 0.418 | 0.257 | 0.452 | 0.284 | 0.87 | 0.813 | 0.938 | 0.692 | 0.483 | 0.429 | 0.462 | 0.393
NCI-H1792 | 0.506 | 0.387 | 0.584 | 0.577 | 0.666 | – | 0.608 | 0.257 | 0.385 | 0.354 | 0.431 | 0.329 | 0.5 | – | 0.395 | 0.169 | 0.544 | 0.569 | 0.607 | 0.662
NCI-H1793 | 0.901 | 0.733 | 0.927 | 0.25 | 0.442 | 0.448 | 0.464 | 0.104 | 0.13 | 0.148 | 0.158 | 0.133 | 0.818 | 0.692 | 0.386 | 0.0938 | 0.3 | 0.297 | 0.247 | 0.123
NCI-H1915 | 1.09 | – | 1.05 | 0.971 | 0.716 | 0.663 | 0.659 | 0.368 | 0.771 | – | 0.768 | 0.331 | 0.256 | 0.243 | 0.231 | 0.169 | 0.517 | 0.381 | 0.489 | 0.206
NCI-H1944 | 1.14 | 1.18 | 1.12 | 1.13 | 0.469 | 0.567 | 0.408 | 0.206 | 0.73 | 0.682 | 0.654 | 0.371 | 0.421 | 0.412 | 0.358 | 0.209 | 0.328 | 0.328 | 0.347 | 0.227
NCI-H1975 | 0.942 | 0.764 | 0.225 | 0.126 | 0.779 | 0.406 | 0.292 | 0.212 | 0.126 | 0.133 | 0.133 | 0.115 | 0.752 | 0.633 | 0.337 | 0.183 | 0.579 | 0.263 | 0.205 | 0.0984
NCI-H1993 | 0.72 | 0.823 | 0.683 | 0.591 | 0.712 | 0.618 | 0.475 | 0.315 | 0.764 | 0.595 | 0.466 | 0.429 | 0.967 | 0.789 | 0.516 | 0.393 | 0.712 | 0.564 | 0.456 | 0.433
NCI-H2085 | 0.786 | 0.596 | 0.432 | 0.247 | 1.04 | 0.875 | 0.394 | 0.25 | 0.421 | 0.393 | 0.321 | 0.248 | 0.874 | 0.669 | 0.497 | 0.282 | 0.459 | 0.423 | 0.333 | 0.255
NCI-H2087 | 1.01 | 0.607 | 0.587 | 0.696 | 1.23 | 0.767 | 0.589 | 0.279 | 0.158 | 0.189 | 0.139 | 0.0928 | 0.55 | 0.264 | 0.334 | 0.082 | 0.222 | 0.188 | 0.176 | 0.0806
NCI-H2126 | 0.665 | 0.699 | 0.731 | 0.65 | 1.02 | 0.972 | 0.95 | 0.929 | 0.883 | 0.801 | 0.338 | 0.325 | 0.913 | 0.886 | 0.887 | 0.777 | 0.341 | 0.357 | 0.352 | 0.309
NCI-H2347 | 0.967 | 0.88 | 0.992 | 0.629 | 0.703 | 0.661 | 0.629 | 0.447 | 0.318 | 0.557 | 0.282 | 0.25 | 0.591 | 0.463 | 0.525 | 0.339 | 0.401 | 0.441 | 0.328 | 0.321
